Data reported in patent US6436979B1 (priority 2000, dated 2002).
Like-named read-outs stand apart in the source and are kept apart here.

Tested on: Phytophthora infestans
Type: in vivo
Details: tomato leaves infected next day with zoospore suspension, evaluated after 6 days, untreated control 89% infection
[1] = conc. in the spray liquor 0.06 ppm
[2] = conc. in the spray liquor 0.25 ppm

| SMILES | Efficacy in % of the untreated control [1] [%] | Efficacy in % of the untreated control [2] [%] |
| --- | --- | --- |
| CNC(=O)C(=NOC)c1ccccc1COc1cc(C)ccc1C [Compound III] | 0 | 33 |
| CON=C(C(=O)OC)c1ccccc1COc1ccccc1C [Compound II] | 10 |  |
| CC(C)OC(=O)NC(C(=O)NC(C)c1nc2ccc(F)cc2s1)C(C)C (centres unmarked) [Compound IV/1] | 21 |  |
| COC(=O)N(OC)c1ccccc1COc1ccn(-c2ccc(Cl)cc2)n1 [Compound I.32] | 10 | 55 |
| COC(=O)N(OC)c1ccccc1COc1ccn(-c2ccc(C)cc2)n1 [Compound I.38] | 0 | 33 |
